Assay results reported in the OligoGym collection.
These antisense oligonucleotides have a phosphorothioate backbone; sugars and methylation of C are not fully specified.

Biological target: GNAS
Settings: ASO
Note: test concentration or dose not given here.

Sequence | remaining target (mRNA or protein) (fraction of control)
TTTATTTCATTTTATTTGTT | ≥ 1
TTTCATTTGTTTCTTTTATT | ≥ 1
TTTCATTTTATTTGTTTGCT | ≥ 1
TTTCTTTTATTTCATTTTAT | ≥ 1
TTTGCTGCTGCTGTTTTATT | 0.66
TTTGGAACATCTAAGCAAGC | 0.97
TTTGTTTCTTTTATTTCATT | 0.83
TTTGTTTGCTGCTGCTGTTT | 0.96
TTTTACTGAAAGTGAGAGGG | 0.9
TTTTATTTCATTTTATTTGT | 0.91

Biological target: GNA12
Settings: ASO

Sequence | remaining target (mRNA or protein) (fraction of control)
AAGATGTTCATGGACTCC | 0.33
AAGTCATGCTCCACAATT | 0.64
AAGTTGTCCAGGAAGTAC | 0.44
AATTCAGCTGGCCGATCC | 0.59
ACAAGAACCCTTGAGCCC | 0.74
ACGTGGACTTGCCGCTCT | 0.32
ACTAGGAAAGTAATTCAG | 0.47
ACTCGCTTCTCCGGCTGA | 0.85
ACTGCCAAGGAATGCCAA | ≥ 1
AGCAGGCAGCGGCTGAGG | 0.93
AGCATGATGTCCTTCAGG | 0.29
AGCCCTTGAGGATGTTGT | 0.94
AGGATGTTGTCGAAGATG | 0.77
AGTGCTTCTTGATGCTCA | 0.62
ATGATGGAGACGTTGAAG | ≥ 1
CACAATTCCCTTGGTGGC | ≥ 1
CACATCCACCATCTTAAA | ≥ 1
CACCAGGAGGTCCATCTT | 0.75
CAGAATCCCTCCAGAGTG | 0.37
CAGCCGGTTGGTGCGCCT | 0.25
CATGAACAGGATGGACGT | 0.5
CATGGAACACGAAGCGGA | 0.57
CCAGCAGCGCGTCGATGT | 0.29
CCATGCTTCTCATTTTCA | 0.49
CCCCGCCTTGTTCTCGAA | 0.85
CCCTGATGCCAGAATCCC | 0.39
CCGATCCGGTCCAAGTTG | 0.38
CCGCTGGCCGCCCACATC | 0.47

Biological target: GNA13
Settings: ASO

Sequence | remaining target (mRNA or protein) (fraction of control)
GAGCATCAACCAGCACCC | 0.11
GATCTCCTTGGACTTGCG | 0.33
GCAAGCAGAATATCTTGT | 0.5
GCCCGGGTATCAAACGAC | 0.26
GCCGCCGCCGCCGCCTCG | ≥ 1
GCCTCGCCACTCGTCAGC | 0.5
GCGCTGGTCGAAGTCCTG | 0.7
GCTGAAAACCCGGTTATT | 0.65
GGATCCCCTTCAAATTCT | 0.72
GTCGATCTCCTTGGACTT | 0.65
GTTGTGATGGAATATAAT | ≥ 1
GTTTCCTTTCTGATCTCT | 0.35
TAAGGGCTTCTGTTGCTG | 0.55
TATCCAAGTTATCCAGGA | 0.48
TATCCTTCACGTCGCGGA | ≥ 1
TATTGATGTCACACTGTC | 0.48

Sequence | remaining target (mRNA or protein) (fraction of control)
TCACCAGCCGCTTCACAT | 0.23
TCACGTTGCTGTAGATGG | ≥ 1
TCGAAACATTCAAACCAA | 0.42
TCGAAGTCCTGCCCGTGG | ≥ 1
TCGCCCGCGCCCAGCAGC | 0.31
TCTGACCACCTACATCAA | 0.2
TCTGGTTCTCCAAGTTTA | 0.25
TCTTATAGCAGGAAGATA | ≥ 1
TGAGTTGTCTCCCCAGGG | ≥ 1
TGCCTTTGGTGGGTCTTC | 0.51
TGCTCGGCCTCGCCACTC | 0.52
TGTTCAGAGACTCTGTAA | 0.47
TTGAGGTTGTCATGCAGA | 0.73
TTGTACATCACTGTAGCA | 0.41
TTGTTGGTTTGAGTTGTC | ≥ 1
